No end group written: not given here.
Experiments:
[1] = molecular target: T1, angiotensin I-converting enzyme (from rabbit lung) (Oryctolagus cuniculus, UniProt P12822); experiment: ACE-inhibitory activity assay (HHL substrate, colorimetric at 410 nm) and IC50 determination; type: biochemical; conditions: mean ± SD, triplicate; for inhibition at 10000 µM: synthesized peptide at 10 mM; for IC50: synthesized peptide, non-linear regression
T1 construct: angiotensin I-converting enzyme (from rabbit lung); purchased Sigma Aldrich (St. Louis, Mo, USA); host or cells: rabbit lung (tissue-derived)
T1 sequence (P12822 34-1310): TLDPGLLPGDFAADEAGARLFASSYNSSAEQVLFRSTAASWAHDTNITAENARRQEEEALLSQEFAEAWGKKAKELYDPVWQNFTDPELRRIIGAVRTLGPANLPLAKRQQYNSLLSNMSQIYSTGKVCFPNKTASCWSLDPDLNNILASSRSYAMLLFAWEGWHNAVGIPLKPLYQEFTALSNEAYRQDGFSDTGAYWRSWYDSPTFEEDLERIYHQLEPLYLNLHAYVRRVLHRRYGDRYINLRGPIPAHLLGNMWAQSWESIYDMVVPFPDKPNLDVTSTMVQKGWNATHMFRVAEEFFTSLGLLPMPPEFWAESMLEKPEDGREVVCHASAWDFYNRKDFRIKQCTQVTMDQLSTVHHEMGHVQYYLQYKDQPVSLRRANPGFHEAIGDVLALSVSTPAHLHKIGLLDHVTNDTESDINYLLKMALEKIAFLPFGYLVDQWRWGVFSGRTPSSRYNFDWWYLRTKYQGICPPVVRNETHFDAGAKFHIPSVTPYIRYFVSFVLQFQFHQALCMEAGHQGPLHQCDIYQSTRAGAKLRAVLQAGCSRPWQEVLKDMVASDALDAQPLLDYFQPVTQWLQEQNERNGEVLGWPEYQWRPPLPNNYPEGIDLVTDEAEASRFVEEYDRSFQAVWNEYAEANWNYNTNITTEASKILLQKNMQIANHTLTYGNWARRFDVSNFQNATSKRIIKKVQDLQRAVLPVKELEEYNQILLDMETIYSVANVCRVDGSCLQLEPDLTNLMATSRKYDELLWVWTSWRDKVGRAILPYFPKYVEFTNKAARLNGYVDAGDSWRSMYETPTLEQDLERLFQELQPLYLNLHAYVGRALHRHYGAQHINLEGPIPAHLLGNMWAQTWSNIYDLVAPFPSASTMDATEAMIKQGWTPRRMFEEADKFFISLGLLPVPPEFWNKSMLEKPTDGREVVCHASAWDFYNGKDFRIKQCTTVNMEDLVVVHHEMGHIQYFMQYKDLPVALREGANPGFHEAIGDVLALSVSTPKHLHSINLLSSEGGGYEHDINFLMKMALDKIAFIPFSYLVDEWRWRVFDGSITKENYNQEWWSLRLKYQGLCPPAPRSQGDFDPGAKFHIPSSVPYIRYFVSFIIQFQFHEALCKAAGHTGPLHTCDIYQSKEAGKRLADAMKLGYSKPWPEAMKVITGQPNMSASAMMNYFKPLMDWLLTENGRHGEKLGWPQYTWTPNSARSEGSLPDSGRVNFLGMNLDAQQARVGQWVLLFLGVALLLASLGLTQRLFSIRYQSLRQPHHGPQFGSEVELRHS
Experimental: The peptides were chemically synthesized through solid phase synthesis for peptides ≥ 5 amino acids with a percentage purity of > 90% and supplied by Genscript (New Jersey, USA). The ACE-inhibitory activity was measured according to Jimsheena & Gowda with minor modifications. The Peptides stock solutions were diluted over ranges of concentration for each peptide. A 15 μL of the peptide was pre-incubated with 10 μL of ACE (100 mU/mL) at 37°C for 10 min. Then 50 μL of the 5 mM HHL substrate containing 0.30 M NaCl in 50 mM borate buffer pH 8.30 was added and the incubation was continued for the next 60 min. The reaction was stopped using 1 M HCl. Benzene sulfonyl chloride (BSC) and pyridine were then added at 75 μL and 150 μL, respectively and the amount of hippuric acid produced was quantified by the intensity of the yellow color produced in a microplate reader at 410 nm. The ACE-inhibitory activity of the peptides was then calculated from the average of three values as follows: ACE−inhibition(%)=[(AC−AS)/(AC−AB)]×100 (1)
Where AC means absorbance of control (where ACE and substrate were present), AS means absorbance of sample (where peptide, ACE and substrate were present), while AB means the absorbance of blank (where only substrate was present).

ACE = system: ACE; parameters: method as in PMID 22224920; conditions: bromelain-generated peptide from Misgurnus anguillicaudatus tissue protein; cited from earlier work

Substance	inhibition at 10000 µM [1]	IC50 [1]	IC50 (ACE)
ALGPQFY [Ala-Leu-Gly-Pro-Gln-Phe-Tyr]	94.4 ± 2.05%	12 ± 1 µM	
Ala-His-Leu-Leu (AHLL; printed: Ala-His-Leu-Leu)			18.200 ± 0.900 µg/mL
EVLIQ [Glu-Val-Leu-Ile-Gln]	62.1 ± 2.15%	1440 ± 17 µM	
LAPPTM [Leu-Ala-Pro-Pro-Thr-Met]	72.4 ± 1.99%	1310 ± 17 µM	

More lines, main results first:

inhibition at 10000 µM [1]	IC50 [1]	Substance	IC50 (ACE)
54.8 ± 2.17%	1680 ± 46 µM	EHPVL [Glu-His-Pro-Val-Leu]	
81.4 ± 1.78%	980 ± 4 µM	KVPPKA [Lys-Val-Pro-Pro-Lys-Ala]	

— article PMC6542528, “Identification, structure-activity relationship and in silico molecular docking analyses of five novel angiotensin I-converting enzyme (ACE)-inhibitory peptides from stone fish (Actinopyga lecanora) hydrolysates” (PLoS ONE, 2019)
